This assay concerns mouse model of iron deficiency anemia. As to the kind of experiment: Anti-iron deficiency anemia test in mice. The assay is classed as in vivo, ICR mice. As for the experimental part: Experimental animals: 35 ICR mice, clean grade, body weight 20-25 g, female.
Establishment of a mouse model of iron deficiency anemia: All mice were kept in a stainless steel cage, in which wood dust was used as padding to prevent iron from other sources from affecting the experimental results. The mice were adaptively fed at room temperature (24±1° C.) and humidity 50% for 3 days and then randomly divided into 7 groups, with 5 mice in each group. Five mice fed with basal feed (Fe>100 mg kg^−1) were used as a blank control group, and the remaining 30 mice were given a low-iron diet (Fe: 10 mg·kg^−1, AIN93 standard) and randomly divided into a model group (Model), a positive drug (Niferex) group, a ferrous sulfate (FeSO4) group, and low-dose, medium-dose and high-dose groups of the Bletilla striata polysaccharide-iron (III) complex prepared in Example 4. After adaptive feeding, 0.1 mL of blood was taken from the cheeks of all mice, and the routine blood test data, serum iron three-term test data, and other data were determined by using a blood cell analyzer and used as normal values before modeling. Blood was drawn from the cheek of each mouse twice a week, but the blood was not collected. The mice in each group got free access to water. After three consecutive weeks of feeding, 0.2 mL of blood was collected from the cheeks of the mice in each group and then measured for various hematological indexes, and the body weight changes were recorded and plotted. […] Mice that failed in modeling were excluded and were not included in any drug group.
Method of administration: Mice were administered by gavage at 8 am every day for 28 consecutive days. During gavage, the mice in each group got free access to water and fed normal diet. The mice in the blank control group and the model control group were given the same volume of distilled water, the mice in the positive drug group were given a drug with an Fe content of 0.039 mg/kg, the mice in FeSO4 group were given a drug with an Fe content of 0.039 mg/kg, and the mice in the low-dose, medium-dose and high-dose groups of the Bletilla striata polysaccharide-iron (III) complex were given drugs with Fe contents of 0.0195 mg/kg, 0.039 mg/kg, and 0.078 mg/kg, respectively. Except the blank control group, the other six groups were given a low-iron feed. The body weight was weighed, recorded, and plotted once a week, and the animal state was observed.
Sample collection: After the last administration by gavage, the mice in each group got free access to water for 12 hours and sacrificed, whole blood was collected from the heart to determine various biochemical indexes, including hemoglobin content (Hb) in red blood cells, red blood cell count (RBC), hematocrit (HCT), mean corpuscular volume (MCV), mean corpuscular hemoglobin content (MCH), mean corpuscular hemoglobin concentration (MCHC), red blood cell volume distribution width (RDW), serum iron (SI) content, total iron binding capacity (TIBC), and erythropoietin (EPO). Liver and spleen tissues were taken, weighed, and recorded, and the organ index was calculated. The organ coefficient was calculated according to the following equation, and a histogram was plotted for analysis: […]

[1] abbreviates: Fe 0.039 mg/kg (medium-dose group), gavage 28 days.
[2] abbreviates: gavage 28 days, complex low-, medium- and high-dose groups, Niferex and FeSO4 Fe 0.039 mg/kg.

As for ferrous sulfate [FeSO4], under setting [1], the HCT worked out at 0.29 ± 0.05, the MCH turned out to be 17.83 ± 0.63, the MCHC is listed as 400.49 ± 16.03 and the MCV amounted to 51.20 ± 2.07. For the same substance, under setting [1], the RBC value is listed as 6.85 10^12/L and the RDW amounted to 25.56 ± 2.99. Also, for the setting “Fe 0.039 mg/kg, gavage 28 days”, the “effect on EPO compared with model group” value was “no regulatory effect on EPO” and the “liver index compared with model group” value was “not strong”. Further, the “body weight after 28 days of administration (comparison between groups)” value (Fe 0.039 mg/kg, gavage daily 28 days) is “extremely significantly different from that in the control group”. Also, under setting [2], the “Hb value compared with control group” value is given as “not significantly different from that in the control group” and the “effect on total iron binding capacity (TIBC)” value was “best effect”.
